What all share (format): cell-based
The target of one experiment is BaF3_EGFRWT cells (Homo sapiens, UniProt P00533). Nature of the experiment: Cell growth inhibition assay (CellTiterGlo), BaF3_EGFRWT. A general note: ATP-based viability assays read luminescence as a measure of living cells.
The target in the next experiment is BaF3_HER2WT cells (Homo sapiens, UniProt P04626). Briefly: Cell growth inhibition assay (CellTiterGlo), BaF3_HER2WT.
The target in another experiment is BaF3_HER2YVMA cells (Homo sapiens, UniProt P04626, DUP772-775, cells depend on it). Nature of the experiment: Cell growth inhibition assay (CellTiterGlo), BaF3_HER2YVMA.
Sequence of BaF3_HER2YVMA cells (P04626 with tags, fused parts or gaps DUP772-775): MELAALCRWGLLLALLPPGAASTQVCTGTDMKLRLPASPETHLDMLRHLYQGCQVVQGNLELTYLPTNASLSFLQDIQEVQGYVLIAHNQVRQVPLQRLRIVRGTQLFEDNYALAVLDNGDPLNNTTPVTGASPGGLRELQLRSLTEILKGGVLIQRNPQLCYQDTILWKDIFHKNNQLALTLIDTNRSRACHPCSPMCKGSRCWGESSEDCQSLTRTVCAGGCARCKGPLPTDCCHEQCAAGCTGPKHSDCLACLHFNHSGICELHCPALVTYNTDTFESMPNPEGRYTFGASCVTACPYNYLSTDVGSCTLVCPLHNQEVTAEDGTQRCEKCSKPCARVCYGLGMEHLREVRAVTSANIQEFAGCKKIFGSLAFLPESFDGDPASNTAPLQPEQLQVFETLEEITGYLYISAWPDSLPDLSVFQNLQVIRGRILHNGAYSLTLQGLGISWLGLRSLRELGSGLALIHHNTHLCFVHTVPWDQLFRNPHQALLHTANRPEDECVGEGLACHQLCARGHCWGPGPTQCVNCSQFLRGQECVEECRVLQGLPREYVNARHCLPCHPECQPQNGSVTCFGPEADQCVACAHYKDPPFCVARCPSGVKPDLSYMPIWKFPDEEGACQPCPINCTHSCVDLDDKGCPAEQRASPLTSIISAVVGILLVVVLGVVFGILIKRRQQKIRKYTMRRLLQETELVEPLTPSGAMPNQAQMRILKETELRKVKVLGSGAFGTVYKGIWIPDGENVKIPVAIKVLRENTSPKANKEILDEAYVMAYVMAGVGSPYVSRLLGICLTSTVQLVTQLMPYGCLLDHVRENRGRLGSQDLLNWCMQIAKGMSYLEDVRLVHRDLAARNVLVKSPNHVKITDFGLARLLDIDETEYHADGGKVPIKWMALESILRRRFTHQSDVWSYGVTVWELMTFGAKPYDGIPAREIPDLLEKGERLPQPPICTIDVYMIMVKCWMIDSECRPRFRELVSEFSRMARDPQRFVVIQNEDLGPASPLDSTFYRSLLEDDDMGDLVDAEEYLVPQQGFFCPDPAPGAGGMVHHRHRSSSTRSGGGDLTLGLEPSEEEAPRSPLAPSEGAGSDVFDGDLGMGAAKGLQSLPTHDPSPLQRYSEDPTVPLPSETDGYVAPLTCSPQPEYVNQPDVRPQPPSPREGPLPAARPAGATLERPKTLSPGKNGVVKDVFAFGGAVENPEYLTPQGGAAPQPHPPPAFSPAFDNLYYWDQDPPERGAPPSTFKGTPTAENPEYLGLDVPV
Setting [1] is: 3-day treatment, CellTiterGlo, read-out: Cell growth inhibition activity, EGFR WT.
The mark [2] stands for this setting: 3-day treatment, CellTiterGlo, read-out: Cell growth inhibition activity, HER2 WT.
Where [3] appears, read: cell growth inhibition, 3 days treatment, read-out: HER2 WT IC50.
The mark [4] stands for this setting: cell growth inhibition, 80 ng/mL EGF, 3 days treatment, read-out: EGFR WT IC50.
[5] abbreviates: cell growth inhibition, 3 days treatment, read-out: HER2 - YVMA IC50.

SMILES strings stand for the structures. Structures can show the parent of a compound that is named as a salt. Where two headings read alike, the source gives them in different places.

Sequence of BaF3_HER2WT cells (P04626 whole entry, change not shown): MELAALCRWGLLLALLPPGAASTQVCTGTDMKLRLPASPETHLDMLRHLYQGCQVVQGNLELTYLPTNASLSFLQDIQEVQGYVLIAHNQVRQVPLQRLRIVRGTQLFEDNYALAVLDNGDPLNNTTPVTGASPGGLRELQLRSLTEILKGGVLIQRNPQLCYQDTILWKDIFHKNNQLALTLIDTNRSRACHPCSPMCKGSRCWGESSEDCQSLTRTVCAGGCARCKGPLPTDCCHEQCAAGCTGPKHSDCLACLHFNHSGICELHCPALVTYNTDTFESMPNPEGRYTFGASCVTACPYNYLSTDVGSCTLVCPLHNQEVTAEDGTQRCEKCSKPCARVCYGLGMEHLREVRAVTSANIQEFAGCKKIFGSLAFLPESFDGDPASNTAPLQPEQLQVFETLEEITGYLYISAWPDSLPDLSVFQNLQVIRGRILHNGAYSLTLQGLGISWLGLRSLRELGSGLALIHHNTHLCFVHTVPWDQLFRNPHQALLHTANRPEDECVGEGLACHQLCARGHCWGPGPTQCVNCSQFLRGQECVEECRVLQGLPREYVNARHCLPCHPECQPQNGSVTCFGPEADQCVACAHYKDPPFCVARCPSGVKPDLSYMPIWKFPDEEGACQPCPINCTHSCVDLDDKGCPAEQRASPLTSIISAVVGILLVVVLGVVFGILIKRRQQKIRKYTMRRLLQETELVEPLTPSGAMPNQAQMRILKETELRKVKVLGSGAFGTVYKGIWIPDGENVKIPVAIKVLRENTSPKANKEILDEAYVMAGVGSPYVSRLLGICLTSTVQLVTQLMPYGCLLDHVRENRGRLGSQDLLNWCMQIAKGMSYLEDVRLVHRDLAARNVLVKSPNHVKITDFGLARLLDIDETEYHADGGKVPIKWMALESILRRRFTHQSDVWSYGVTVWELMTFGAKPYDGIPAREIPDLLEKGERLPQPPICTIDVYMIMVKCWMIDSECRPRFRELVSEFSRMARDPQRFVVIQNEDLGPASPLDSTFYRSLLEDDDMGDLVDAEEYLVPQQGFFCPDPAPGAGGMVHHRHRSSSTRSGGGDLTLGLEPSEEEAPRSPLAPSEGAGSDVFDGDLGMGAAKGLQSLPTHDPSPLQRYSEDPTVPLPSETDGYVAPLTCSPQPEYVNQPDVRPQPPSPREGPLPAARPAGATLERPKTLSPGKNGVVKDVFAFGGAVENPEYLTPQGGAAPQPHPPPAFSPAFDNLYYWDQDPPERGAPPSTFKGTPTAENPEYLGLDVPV
Sequence of BaF3_EGFRWT cells (P00533 whole entry, change not shown): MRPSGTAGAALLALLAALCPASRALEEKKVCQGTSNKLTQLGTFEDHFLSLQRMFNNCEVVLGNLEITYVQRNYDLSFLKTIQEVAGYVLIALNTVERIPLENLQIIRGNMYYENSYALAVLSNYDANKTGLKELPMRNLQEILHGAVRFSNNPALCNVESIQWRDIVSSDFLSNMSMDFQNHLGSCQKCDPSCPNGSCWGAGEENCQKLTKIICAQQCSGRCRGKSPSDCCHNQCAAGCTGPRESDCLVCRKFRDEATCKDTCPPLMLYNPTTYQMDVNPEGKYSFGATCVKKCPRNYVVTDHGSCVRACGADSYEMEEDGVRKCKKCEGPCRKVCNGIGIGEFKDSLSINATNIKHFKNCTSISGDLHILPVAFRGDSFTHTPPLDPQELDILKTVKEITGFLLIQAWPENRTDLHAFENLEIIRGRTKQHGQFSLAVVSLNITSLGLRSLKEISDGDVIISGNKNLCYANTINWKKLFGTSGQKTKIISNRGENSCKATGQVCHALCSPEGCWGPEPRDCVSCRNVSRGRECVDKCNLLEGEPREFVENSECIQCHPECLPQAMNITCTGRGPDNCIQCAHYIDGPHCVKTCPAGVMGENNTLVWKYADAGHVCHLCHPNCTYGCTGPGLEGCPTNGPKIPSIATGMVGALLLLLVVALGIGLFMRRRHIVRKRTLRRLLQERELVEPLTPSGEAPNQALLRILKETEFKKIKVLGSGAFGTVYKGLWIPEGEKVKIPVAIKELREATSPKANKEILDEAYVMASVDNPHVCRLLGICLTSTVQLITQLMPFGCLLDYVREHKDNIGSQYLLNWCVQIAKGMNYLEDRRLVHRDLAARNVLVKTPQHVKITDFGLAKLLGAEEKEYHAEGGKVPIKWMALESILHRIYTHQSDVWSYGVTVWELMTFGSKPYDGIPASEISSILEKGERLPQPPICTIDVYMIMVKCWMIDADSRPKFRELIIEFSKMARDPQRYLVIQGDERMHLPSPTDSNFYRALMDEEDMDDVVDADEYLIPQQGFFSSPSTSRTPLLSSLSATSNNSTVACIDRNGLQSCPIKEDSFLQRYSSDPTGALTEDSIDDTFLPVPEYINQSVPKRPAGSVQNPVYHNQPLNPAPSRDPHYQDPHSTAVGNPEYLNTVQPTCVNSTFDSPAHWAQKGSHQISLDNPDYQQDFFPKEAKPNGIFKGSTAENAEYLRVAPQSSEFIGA

For the molecule `COC1CCN(C/C=C/C(=O)N2CCC(c3ccn4ncnc(Nc5ccc(Oc6ccc7c(c6)ncn7C)c(C)c5)c34)CC2)C1` (racemic) [Example 106, (E)-4-(3-methoxypyrrolidin-1-yl)-1-(4-(4-((3-methyl-4-((1-methyl-1H-benzo[d]imidazol-5-yl)oxy)phenyl)amino)pyrrolo[2,1-f][1,2,4]triazin-5-yl)piperidin-1-yl)but-2-en-1-one], the GI50 at BaF3_EGFRWT cells (setting [1]) was 1500 to 5000 nM.
For `C=CC(=O)N1C[C@H]2C[C@@H]1C[C@H]2c1ccn2ncnc(Nc3ccc(Oc4ccn5ncnc5c4)c(C)c3)c12` (relative stereo) [Example 104, Rel-1-1(1S,4S,5R)-5-{4-[(3-methyl-4-{[1,2,4]triazolo[1,5-a]pyridin-7-yloxy}phenyl)amino]pyrrolo[2,1-f][1,2,4]triazin-5-yl}-2-azabicyclo[2.2.1]heptan-2-yl]prop-2-en-1-one], the GI50 on BaF3_HER2WT cells (setting [2]) was 500 to 1500 nM; on BaF3_EGFRWT cells (setting [1]), 1500 to 5000 nM; at BaF3_HER2YVMA cells (3-day treatment, CellTiterGlo, read-out: Cell growth inhibition activity, HER2 - YVMA) it was 1500 to 5000 nM.
On to `Cc1cc(Nc2ncnn3ccc(C4CCN(C(=O)/C=C/CN(C)C)C4)c23)ccc1Oc1ccn2ncnc2c1` (single isomer, unassigned) [Examples 99 and 100, first eluting isomer, (E)-1-(3-(4-((4-([1,2,4]triazolo[1,5-a]pyridin-7-yloxy)-3-methylphenyl)amino)pyrrolo[2,1-f][1,2,4]triazin-5-yl)pyrrolidin-1-yl)-4-(dimethylamino)but-2-en-1-one], for which the GI50 was under 200 nM on BaF3_HER2WT cells (setting [3]), 1500 to 5000 nM on BaF3_EGFRWT cells (setting [4]) and under 200 nM at BaF3_HER2YVMA cells (setting [5]).
In the case of `Cc1cc(Nc2ncnn3ccc(C4CCN(C(=O)/C=C/CN(C)C)C4)c23)ccc1Oc1ccn2ncnc2c1` (single isomer, unassigned) [Examples 99 and 100, second eluting isomer, (E)-1-(3-(4-((4-([1,2,4]triazolo[1,5-a]pyridin-7-yloxy)-3-methylphenyl)amino)pyrrolo[2,1-f][1,2,4]triazin-5-yl)pyrrolidin-1-yl)-4-(dimethylamino)but-2-en-1-one], the GI50 is under 200 nM on BaF3_HER2WT cells (setting [3]), 1500 to 5000 nM at BaF3_EGFRWT cells (setting [4]) and 500 to 1500 nM at BaF3_HER2YVMA cells (setting [5]).
With `Cc1cc(Nc2ncnn3ccc(C4CCCN(C(=O)/C=C/CN(C)C)C4)c23)ccc1Oc1ccn2ncnc2c1` (single isomer, unassigned) [Examples 107 and 108, first eluting isomer, (E)-1-(3-(4-((4-([1,2,4]triazolo[1,5-a]pyridin-7-yloxy)-3-methylphenyl)amino)pyrrolo[2,1-f][1,2,4]triazin-5-yl)piperidin-1-yl)-4-(dimethylamino)but-2-en-1-one], the GI50 on BaF3_HER2WT cells (setting [3]) was under 200 nM; at BaF3_EGFRWT cells (setting [4]) it was 1500 to 5000 nM; on BaF3_HER2YVMA cells (setting [5]), 500 to 1500 nM.
Regarding `Cc1cc(Nc2ncnn3ccc(C4CCCN(C(=O)/C=C/CN(C)C)C4)c23)ccc1Oc1ccn2ncnc2c1` (single isomer, unassigned) [Examples 107 and 108, second eluting isomer, (E)-1-(3-(4-((4-([1,2,4]triazolo[1,5-a]pyridin-7-yloxy)-3-methylphenyl)amino)pyrrolo[2,1-f][1,2,4]triazin-5-yl)piperidin-1-yl)-4-(dimethylamino)but-2-en-1-one], the GI50 lay within 500 to 1500 nM at BaF3_HER2WT cells (setting [3]), 1500 to 5000 nM on BaF3_EGFRWT cells (setting [4]) and 1500 to 5000 nM at BaF3_HER2YVMA cells (setting [5]).
Turning to `Cc1cc(Nc2ncnn3ccc(C4CCCN(C(=O)/C=C/CN(C)C)CC4)c23)ccc1Oc1ccn2ncnc2c1` (single isomer, unassigned) [Examples 109 and 110, first eluting isomer, (E)-1-(4-(4-((4-([1,2,4]triazolo[1,5-a]pyridin-7-yloxy)-3-methylphenyl)amino)pyrrolo[2,1-f][1,2,4]triazin-5-yl)azepan-1-yl)-4-(dimethylamino)but-2-en-1-one], the GI50 at BaF3_HER2WT cells (setting [3]) is under 200 nM; on BaF3_EGFRWT cells (setting [4]), 1500 to 5000 nM; on BaF3_HER2YVMA cells (setting [5]), under 200 nM.
For `C=CC(=O)N1CCCC(c2ccn3ncnc(Nc4ccc(Oc5ccn6ncnc6c5)c(C)c4)c23)CC1` (single isomer, unassigned) [Examples 111 and 112, first eluting isomer, 1-(4-(4-((4-([1,2,4]triazolo[1,5-a]pyridin-7-yloxy)-3-methylphenyl)amino)pyrrolo-[2,1-f][1,2,4]triazin-5-yl)azepan-1-yl)prop-2-en-1-one], the GI50 on BaF3_HER2WT cells (setting [3]) is under 200 nM; on BaF3_EGFRWT cells (setting [4]) it was 1500 to 5000 nM; at BaF3_HER2YVMA cells (setting [5]), under 200 nM.
With `C=CC(=O)N1CCCC(c2ccn3ncnc(Nc4ccc(Oc5ccn6ncnc6c5)c(C)c4)c23)CC1` (single isomer, unassigned) [Examples 111 and 112, second eluting isomer, 1-(4-(4-((4-([1,2,4]triazolo[1,5-a]pyridin-7-yloxy)-3-methylphenyl)amino)pyrrolo-[2,1-f][1,2,4]triazin-5-yl)azepan-1-yl)prop-2-en-1-one], at BaF3_EGFRWT cells (setting [4]), the GI50 lay within 1500 to 5000 nM.
On to `Cc1cc(Nc2ncnn3ccc(C4CC5CCC(C4)N5C(=O)/C=C/CN(C)C)c23)ccc1Oc1ccn2ncnc2c1` (single isomer, unassigned) [Examples 122 and 123, first eluting isomer, (E)-1-(−3-(4-((4-([1,2,4]triazolo[1,5-a]pyridin-7-yloxy)-3-methylphenyl)amino)pyrrolo[2,1-f][1,2,4]triazin-5-yl)-8-azabicyclo[3.2.1]octan-8-yl)-4-(dimethylamino)but-2-en-1-one], for which the GI50 is under 200 nM at BaF3_HER2WT cells (setting [3]), 500 to 1500 nM on BaF3_EGFRWT cells (setting [4]) and under 200 nM on BaF3_HER2YVMA cells (setting [5]).
`Cc1cc(Nc2ncnn3ccc(C4CC5CCC(C4)N5C(=O)/C=C/CN(C)C)c23)ccc1Oc1ccn2ncnc2c1` (single isomer, unassigned) [Examples 122 and 123, second eluting isomer, (E)-1-(3-(4-((4-([1,2,4]triazolo[1,5-a]pyridin-7-yloxy)-3-methylphenyl)amino)pyrrolo[2,1-f][1,2,4]triazin-5-yl)-8-azabicyclo[3.2.1]octan-8-yl)-4-(dimethylamino)but-2-en-1-one]: the results for the GI50 on BaF3_HER2WT cells (setting [3]), at BaF3_EGFRWT cells (setting [4]) and at BaF3_HER2YVMA cells (setting [5]) were under 200 nM, 1500 to 5000 nM and 200 to 500 nM, respectively.
Take `C=CC(=O)N1C2CCC1CC(c1ccn3ncnc(Nc4ccc(Oc5ccn6ncnc6c5)c(C)c4)c13)C2` (single isomer, unassigned) [Examples 124 and 125, first eluting isomer, 1-(3-(4-((4-([1,2,4]triazolo[1,5-a]pyridin-7-yloxy)-3-methylphenyl)amino)pyrrolo[2,1-f][1,2,4]triazin-5-yl)-8-azabicyclo[3.2.1]octan-8-yl)prop-2-en-1-one]: the GI50 at BaF3_HER2WT cells (setting [3]), on BaF3_EGFRWT cells (setting [4]) and on BaF3_HER2YVMA cells (setting [5]) was under 200 nM throughout.
For the molecule `C=C(CN(C)C)C(=O)N1C2CCC1CC(c1ccn3ncnc(Nc4ccc(Oc5ccn6ncnc6c5)c(C)c4)c13)C2` (single isomer, unassigned) [Examples 126 and 127, first eluting isomer, 1-(3-(4-((4-([1,2,4]triazolo[1,5-a]pyridin-7-yloxy)-3-methylphenyl)amino)pyrrolo[2,1-f][1,2,4]triazin-5-yl)-8-azabicyclo[3.2.1]octan-8-yl)-2-((dimethylamino)methyl)prop-2-en-1-one], the GI50 was under 200 nM at BaF3_HER2WT cells (setting [3]), 1500 to 5000 nM on BaF3_EGFRWT cells (setting [4]) and 200 to 500 nM on BaF3_HER2YVMA cells (setting [5]).
Take `C=C(CN(C)C)C(=O)N1C2CCC1CC(c1ccn3ncnc(Nc4ccc(Oc5ccn6ncnc6c5)c(C)c4)c13)C2` (single isomer, unassigned) [Examples 126 and 127, second eluting isomer, 1-(3-(4-((4-([1,2,4]triazolo[1,5-a]pyridin-7-yloxy)-3-methylphenyl)amino)pyrrolo[2,1-f][1,2,4]triazin-5-yl)-8-azabicyclo[3.2.1]octan-8-yl)-2-((dimethylamino)methyl)prop-2-en-1-one]: the GI50 at BaF3_HER2WT cells (setting [3]) is 200 to 500 nM; on BaF3_EGFRWT cells (setting [4]), 1500 to 5000 nM; on BaF3_HER2YVMA cells (setting [5]), 500 to 1500 nM.
In the case of `C=C(CN(C)C)C(=O)N1CC2CCC1CC2c1ccn2ncnc(Nc3ccc(Oc4ccn5ncnc5c4)c(C)c3)c12` (single isomer, unassigned) [Examples 135 and 136, first eluting isomer, 1-(5-(4-((4-([1,2,4]triazolo[1,5-a]pyridin-7-yloxy)-3-methylphenyl)amino)pyrrolo[2,1-f][1,2,4]triazin-5-yl)-2-azabicyclo[2.2.2]octan-2-yl)-2-((dimethylamino)methyl)prop-2-en-1-one], the values for the GI50 at BaF3_HER2WT cells (setting [3]), on BaF3_EGFRWT cells (setting [4]) and on BaF3_HER2YVMA cells (setting [5]) were under 200 nM, 1500 to 5000 nM and under 200 nM, respectively.
As for `Cc1cc(Nc2ncnn3ccc(C4CCN(C(=O)/C=C/CN(C)C)CC4)c23)ccc1Oc1ccn2ncnc2c1` [Example 21, (E)-1-(4-(4-((4-([1,2,4]triazolo[1,5-a]pyridin-7-yloxy)-3-methylphenyl)amino)pyrrolo[2,1-f][1,2,4]triazin-5-yl)piperidin-1-yl)-4-(dimethylamino)but-2-en-1-one], the GI50 at BaF3_EGFRWT cells (setting [1]) lay within 1500 to 5000 nM.
`COC1CN(C/C=C/C(=O)N2CC(c3ccn4ncnc(Nc5ccc(Oc6ccn7ncnc7c6)c(C)c5)c34)C2)C1` [Example 39, (E)-1-(3-(4-((4-([1,2,4]triazolo[1,5-a]pyridin-7-yloxy)-3-methylphenyl)amino)pyrrolo[2,1-f][1,2,4]triazin-5-yl)azetidin-1-yl)-4-(3-methoxyazetidin-1-yl)but-2-en-1-one]: the values for the GI50 on BaF3_HER2WT cells (setting [2]) and at BaF3_EGFRWT cells (setting [1]) were under 200 nM and 1500 to 5000 nM, respectively.
On to `Cc1cc(Nc2ncnn3ccc(C(=O)NCCCN(C)C)c23)ccc1Oc1ccn2ncnc2c1` [Example 179, 4-((4-([1,2,4]triazolo[1,5-a]pyridin-7-yloxy)-3-methylphenyl)amino)-N-(3-(dimethylamino)-propyl)pyrrolo[2,1-f][1,2,4]triazine-5-carboxamide hydrochloride], for which the GI50 on BaF3_HER2WT cells (setting [2]) is 200 to 500 nM; at BaF3_EGFRWT cells (setting [1]), over 5000 nM.
